Drawing on patent publication US11530186B2, “Inhibitors for the β-catenin / T-cell factor protein-protein interaction” (H. LEE MOFFITT CANCER CENTER AND RESEARCH INSTITUTE, INC., priority 2018, dated 2022), this text covers Ki for 14 compounds.

This assay has as its target T1, β-catenin/Tcf protein-protein interaction (Homo sapiens, UniProt P35222).
T1 construct: Wild-type β-catenin (residues 138-781) were cloned into a pET-28b vector; 6×histidine (C); made in house; host or cells: E. coli BL21 DE3
T1 sequence (P35222 138-781): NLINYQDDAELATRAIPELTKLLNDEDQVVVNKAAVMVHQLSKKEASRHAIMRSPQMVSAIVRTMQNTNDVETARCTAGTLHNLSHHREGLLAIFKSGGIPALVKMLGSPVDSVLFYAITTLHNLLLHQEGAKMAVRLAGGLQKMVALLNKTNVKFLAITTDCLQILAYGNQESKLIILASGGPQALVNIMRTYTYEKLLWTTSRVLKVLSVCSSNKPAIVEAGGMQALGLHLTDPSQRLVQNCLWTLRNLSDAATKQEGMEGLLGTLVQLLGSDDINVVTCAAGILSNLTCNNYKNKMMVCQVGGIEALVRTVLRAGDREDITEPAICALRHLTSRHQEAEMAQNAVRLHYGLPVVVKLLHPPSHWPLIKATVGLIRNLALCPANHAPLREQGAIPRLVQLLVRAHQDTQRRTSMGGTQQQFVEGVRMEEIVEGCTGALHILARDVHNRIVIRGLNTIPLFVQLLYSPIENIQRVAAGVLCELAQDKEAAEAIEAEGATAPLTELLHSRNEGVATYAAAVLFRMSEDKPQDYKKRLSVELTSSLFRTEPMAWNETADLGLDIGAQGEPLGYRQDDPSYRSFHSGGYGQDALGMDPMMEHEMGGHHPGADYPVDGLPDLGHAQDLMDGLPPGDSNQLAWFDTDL
Description: FP competitive inhibition assay. In kind it is binding. The protocol:
Protein Expression and Purification. Wild-type β-catenin (residues 138-781) were cloned into a pET-28b vector carrying a C-terminal 6×histidine (Novagen) and transformed into E. coli BL21 DE3 (Novagen). Cells were cultured in LB medium with 30 μg/mL kanamycin until the OD600 was approximately 0.8, and then protein expression was induced with 400 μM of IPTG at 20° C. overnight. Cells were lysed by sonication. The proteins were purified by Ni-NTA affinity chromatography (30210, Qiagen) and dialyzed against a buffer containing 20 mM of Tris (pH 8.8), 100 mM NaCl, 10% glycerol, and 3 mM DTT. The purity of β-catenin was set to >95% as determined by SDS-PAGE gel analysis. Native non-denaturing gel electrophoresis experiment and the thermal-shift assay on an iCycler iQ Real Time Detection System (Bio-Rad) were performed for each purified protein. In the thermal shift assay, protein unfolding was evaluated through measuring the fluorescence changes of fluorescent dye Sypro Orange with purified β-catenin proteins. A temperature increment of 1° C./min was applied to monitor protein stability and detect protein aggregation. CD spectra were measured on a J-815 spectropolarimeter (Jasco). All spectra were recorded using a 1 mm path-length quartz cell. The CD spectra were averaged over three scans, and the wavelength was scanned from 260 to 190 nm in step of 1 nm. All spectra were recorded at room temperature, and the baseline was corrected by subtracting the CD spectra of a blank control containing all of the substances except protein. Samples were prepared at a concentration around 1-5 μM in a buffer of 10 mM potassium phosphate and 100 mM potassium fluoride at pH 7.0 to ensure that the transmission of light through the sample was not restricted. All proteins were stable, and no aggregation was observed under storage or assay conditions. Proteins were aliquoted and stored at −80° C. C-terminally fluorescein-labeled human Tcf4 (residues 7-51) was synthesized and HPLC purified with purity >95%. The structures were validated by LC/MS (liquid chromatography/mass spectrometry).
FP Assays. The procedures for the FP competitive inhibition assays have been described previously (Zhang, M.; Huang, Z.; Yu, B.; Ji, H. New homogeneous high-throughput assays for inhibitors of β-catenin/Tcf protein-protein interactions Anal. Biochem. 2012, 424, 57-63; Zhang, M.; Catrow, J. L.; Ji, H. High-throughput selectivity assays for small-molecule inhibitors of β-catenin/T-cell factor protein-protein interactions. ACS Med. Chem. Lett. 2013, 4, 306-311). Briefly, all of the tested compounds were prepared as 10 mM DMSO stocks. In the primary screen, the concentrations of the compounds and DMSO were set to 50 μM and 1% (v/v). Only the compounds which FP signal decreases were greater than 50% in the single-point β-catenin/Tcf assay were evaluated by counter screen. […] In the FP competitive inhibition assay, 10 nM human β-catenin and 2.5 nM of C-terminally fluorescein-labeled human Tcf4 were incubated in an assay buffer of 137 mM NaCl, 2.7 mM KCl, 10 mM Na2HPO4, 2 mM KH2PO4, 100 μg/mL of bovine γ-globulin, and 0.01% Triton-X100 for 15 min at 4° C. Bovine γ-globulin and Triton-X100 were included in the assay buffer to decrease the likelihood of compound acting by aggregate formation. Different concentrations of the tested compounds in the assay buffer were added to each test plate to make a final volume of 100 μL. Each assay plate was covered black and gently mixed on an orbital shaker at 4° C. for 1.5 h to reach equilibrium before the polarization values were read. The IC50 value was determined by nonlinear least-square analysis of GraphPad Prism 5.0. The Ki values were derived (Nikolovska-Coleska, Z.; Wang, R.; Fang, X.; Pan, H.; Tomita, Y.; Li, P.; Roller, P. P.; Krajewski, K.; Saito, N. G.; Stuckey, J. A.; Wang, S. Development and optimization of a binding assay for the XIAP BIR3 domain using fluorescence polarization. Anal. Biochem. 2004, 332, 261-273). […]

Where [1] appears, read: Assay 1, mean ± SD (n = 3), read-out: Ki ± SD, Assay 1.
Setting [2] is: Assay 2, mean ± SD (n = 3), read-out: Ki ± SD, Assay 2.

Read-outs that look alike come from different tables or passages of the source.

`COc1ccc2sc(CCc3c(CCc4ccc(Cl)cc4)c4cc(C(=O)NCCc5ccc(Cl)cc5)ccc4n3CCc3nn[nH]n3)nc2c1` [Compound 49, 1-(2-(2H-tetrazol-5-yl)ethyl)-N,3-bis(4-chlorophenethyl)-2-(2-(5-methoxybenzo[d]thiazol-2-yl)ethyl)-1H-indole-5-carboxamide]: the Ki runs as follows: under setting [1], 0.75 ± 0.23 µM; under setting [2], 3.2 ± 0.24 µM.

With `COc1ccc2sc(CCc3c(CCc4ccc(Cl)cc4)c4cc(C(=O)NCCOc5ccc(Cl)cc5)ccc4n3CCc3nn[nH]n3)nc2c1` [Compound 50, 1-(2-(2H-tetrazol-5-yl)ethyl)-3-(4-chlorophenethyl)-N-(2-(4-chlorophenoxy)ethyl)-2-(2-(5-methoxybenzo[d]thiazol-2-yl)ethyl)-1H-indole-5-carboxamide], the Ki under setting [1] worked out at 3.2 ± 0.28 µM.

`COc1ccc2sc(CCc3c(CCc4ccc(Cl)cc4)c4cc(C(=O)NCc5ccccc5Cl)ccc4n3CCc3nn[nH]n3)nc2c1` [Compound 51, 1-(2-(2H-tetrazol-5-yl)ethyl)-N-(2-chlorobenzyl)-3-(4-chlorophenethyl)-2-(2-(5-methoxybenzo[d]thiazol-2-yl)ethyl)-1H-indole-5-carboxamide]: the Ki under setting [1] worked out at 3.6 ± 0.6 µM and the Ki under setting [2] is 4.8 ± 0.84 µM.

Consider `COc1ccc2sc(CCc3c(CCc4ccc(Cl)cc4)c4cc(C(=O)NCc5ccccc5Br)ccc4n3CCc3nn[nH]n3)nc2c1` [Compound 52, 1-(2-(2H-tetrazol-5-yl)ethyl)-N-(2-bromobenzyl)-3-(4-chlorophenethyl)-2-(2-(5-methoxybenzo[d]thiazol-2-yl)ethyl)-1H-indole-5-carboxamide], for which the Ki under setting [1] was 1.5 ± 0.17 µM and the Ki under setting [2] turned out to be 2.6 ± 0.59 µM.

Take `COc1ccc2sc(CCc3c(CCc4ccc(Cl)cc4)c4cc(C(=O)NCc5cccc(Cl)c5)ccc4n3CCc3nn[nH]n3)nc2c1` [Compound 53, 1-(2-(2H-tetrazol-5-yl)ethyl)-N-(3-chlorobenzyl)-3-(4-chlorophenethyl)-2-(2-(5-methoxybenzo[d]thiazol-2-yl)ethyl)-1H-indole-5-carboxamide]: the Ki runs as follows: under setting [1], 2.7 ± 0.34 µM; under setting [2], 6.1 ± 1.2 µM.

Consider `COc1ccc2sc(CCc3c(CCc4ccc(Cl)cc4)c4cc(C(=O)NCc5ccsc5)ccc4n3CCc3nn[nH]n3)nc2c1` [Compound 59, 1-(2-(2H-tetrazol-5-yl)ethyl)-3-(4-chlorophenethyl)-2-(2-(5-methoxybenzo[d]thiazol-2-yl)ethyl)-N-(thiophen-3-ylmethyl)-1H-indole-5-carboxamide], for which the Ki came out at 0.83 ± 0.048 µM under setting [1] and 3.7 ± 0.23 µM under setting [2].

For `COc1ccc2sc(CCc3c(CCc4ccc(Cl)cc4)c4cc(C(=O)NCC5CCCCC5)ccc4n3CCc3nn[nH]n3)nc2c1` [Compound 63, 1-(2-(2H-tetrazol-5-yl)ethyl)-3-(4-chlorophenethyl)-N-(cyclohexylmethyl)-2-(2-(5-methoxybenzo[d]thiazol-2-yl)ethyl)-1H-indole-5-carboxamide], the Ki reads like this: under setting [1], 1.4 ± 0.2 µM; under setting [2], 4.3 ± 0.39 µM.

As for `COc1ccc2sc(CCc3c(CCc4ccc(Cl)cc4)c4cc(C(=O)NCC5CCOCC5)ccc4n3CCc3nn[nH]n3)nc2c1` [Compound 64, 1-(2-(2H-tetrazol-5-yl)ethyl)-3-(4-chlorophenethyl)-2-(2-(5-methoxybenzo[d]thiazol-2-yl)ethyl)-N-((tetrahydro-2H-pyran-4-yl)methyl)-1H-indole-5-carboxamide], the Ki under setting [1] is 5.4 ± 0.76 µM and the inhibition constant Ki under setting [2] came to 9.5 ± 1.5 µM.

Regarding `COc1ccc2sc(CCc3c(CCc4ccc(Cl)cc4)c4cc(C(=O)NCC5CCOC5)ccc4n3CCc3nn[nH]n3)nc2c1` (stereo not shown) [Compound 65, 1-(2-(2H-tetrazol-5-yl)ethyl)-3-(4-chlorophenethyl)-2-(2-(5-methoxybenzo[d]thiazol-2-yl)ethyl)-N-((tetrahydrofuran-3-yl)methyl)-1H-indole-5-carboxamide], the Ki under setting [1] was 6.1 ± 0.76 µM.

Regarding `COc1ccc2sc(CCc3c(CCc4ccc(Cl)cc4)c4cc(C(=O)NCC(O)CO)ccc4n3CCc3nn[nH]n3)nc2c1` (stereo not shown) [Compound 66, 1-(2-(2H-tetrazol-5-yl)ethyl)-3-(4-chlorophenethyl)-N-(2,3-dihydroxypropyl)-2-(2-(5-methoxybenzo[d]thiazol-2-yl)ethyl)-1H-indole-5-carboxamide], the Ki under setting [1] turned out to be 3.7 ± 0.19 µM and the Ki under setting [2] is 32 ± 3.8 µM.

On to `COc1ccc2sc(CCc3c(CCc4ccc(Cl)cc4)c4cc(C(=O)NCC5CCNCC5)ccc4n3CCc3nn[nH]n3)nc2c1` [Compound 67, 4-((1-(2-(2H-tetrazol-5-yl)ethyl)-3-(4-chlorophenethyl)-2-(2-(5-methoxybenzo[d]thiazol-2-yl)ethyl)-1H-indole-5-carboxamido)methyl)piperidin-1-ium], for which the Ki was 5.9 ± 0.37 µM under setting [1] and more than 22 µM under setting [2].

For the compound `COc1ccc2sc(CCc3c(CCc4ccc(Cl)cc4)c4cc(C(=O)N[C@H]5CC[C@@H](N)CC5)ccc4n3CCc3nn[nH]n3)nc2c1` [Compound 68, (1s,4s)-4-(1-(2-(2H-tetrazol-5-yl)ethyl)-3-(4-chlorophenethyl)-2-(2-(5-methoxybenzo[d]thiazol-2-yl)ethyl)-1H-indole-5-carboxamido)cyclohexan-1-aminium], the Ki under setting [1] is more than 24 µM and the Ki under setting [2] is more than 22 µM.

On to `COc1ccc2sc(CCc3c(CCc4ccc(Cl)cc4)c4cc(C(=O)N[C@H]5CC[C@H](N)CC5)ccc4n3CCc3nn[nH]n3)nc2c1` [Compound 69, (1r,4r)-4-(1-(2-(2H-tetrazol-5-yl)ethyl)-3-(4-chlorophenethyl)-2-(2-(5-methoxybenzo[d]thiazol-2-yl)ethyl)-1H-indole-5-carboxamido)cyclohexan-1-aminium], for which the Ki was more than 24 µM under setting [1] and more than 22 µM under setting [2].

For `COc1ccc2sc(C#Cc3c(CCc4ccc(Cl)cc4)c4cc(C(=O)O)ccc4n3CCc3nn[nH]n3)nc2c1` [Compound 71, 1-(2-(2H-tetrazol-5-yl)ethyl)-3-(4-chlorophenethyl)-2-((5-methoxybenzo[d]thiazol-2-yl)ethynyl)-1H-indole-5-carboxylic acid], the Ki came to 0.18 ± 0.034 µM under setting [1]; 0.29 ± 0.026 µM under setting [2]; 0.34 ± 0.023 µM (Assay 3, mean ± SD (n = 3), read-out: Ki ± SD, Assay 3); 0.45 ± 0.028 µM (Assay 4, mean ± SD (n = 3), read-out: Ki ± SD, Assay 4).

Usually Ki stands for the dissociation constant of the complex between target and ligand, obtained from inhibition or displacement.
